Results published in ChEMBL document CHEMBL5214910, “Rational Design of Dipicolylamine-Containing Carbazole Amphiphiles Combined with Zn2+ as Potent Broad-Spectrum Antibacterial Agents with a Membrane-Disruptive Mechanism” (J Med Chem, 2021).

What was measured:
[1] = system: Cell membrane; experiment: Induction of outer membrane permeabilization in Escherichia coli ATCC 25922 assessed as increase in fluorescence intensity at 2 times to 8 times MIC measured for 1 hrs in the presence of 12.5 ug/ml Zn2+ by NPN uptake assay; assay type: subcellular; conditions: DDE = dose-dependent effect
[2] = system: Escherichia coli; experiment: Antibacterial activity Escherichia coli ATCC 25922 assessed as inhibition of bacterial growth incubated for 24 hrs in the presence of 6.25 ug/mL Zn2+ by Muller hinton broth based dilution assay; assay type: functional

Which Activity [1] does the source give for `CC(C)=CCn1c2ccccc2c2c(OCC(O)CN(Cc3ccccn3)Cc3ccccn3)cccc21` (configuration not stated) here?
Its Activity is “Dde”.

What about the MIC [2] of the same molecule?
The MIC was 1.56 µg/mL.
